What follows are compounds tested against SARS2 protease (Severe acute respiratory syndrome coronavirus 2, UniProt P0DTD1) (assay: SARS-CoV-2 protease inhibition assay (SARS2 FRET protease assay)). Settings: SARS-CoV-2 protease 25 nM, FRET, peptide substrate 1.3 μM, 30 minutes at 30° C., compounds 20 μM to 1.0 nM; read-out: IC50.
Format: biochemical

Row | Structure (SMILES) | IC50
1 | CC(C)(C)OC(=O)N1CCN(C(=O)CC[C@@H](C=O)NC(=O)[C@H](CC2CCCCC2)NC(=O)OCc2cccc(Cl)c2)CC1c1ccccc1 (stereo partly drawn) [Compound C20, tert-butyl 4-((S)-4-((S)-2-((((3-chlorobenzyl)oxy)carbonyl)amino)-3-cyclohexylpropanamido)-5-oxopentanoyl)-2-phenylpiperazine-1-carboxylate] | > 200 µM
2 | CC(C)(c1cccc(Cl)c1)C(OC(=O)N[C@@H](CC1CCCCC1)C(=O)N[C@@H](C[C@@H]1CCNC1=O)C(=O)C(=O)NC1CC1)c1ccccc1 (stereo partly drawn) [Compound C148, 2-(3-Chlorophenyl)-2-methyl-1-phenylpropyl ((S)-3-cyclohexyl-1-(((S)-4-(cyclopropylamino)-3,4-dioxo-1-((S)-2-oxopyrrolidin-3-yl)butan-2-yl)amino)-1-oxopropan-2-yl)carbamate] | 0.973 µM
3 | CN(C)C(=O)CC[C@@H](C=O)NC(=O)C(CC(C)(C)C)NC(=O)OCc1cccc(Cl)c1 (stereo partly drawn) [Compound C22, 3-Chlorobenzyl (1-(((S)-5-(dimethylamino)-1,5-dioxopentan-2-yl)amino)-4,4-dimethyl-1-oxopentan-2-yl)carbamate] | 3.8 µM
4 | CC(C)(c1cccc(Cl)c1)C(OC(=O)N[C@@H](CC1CCCCC1)C(=O)N[C@H](C=O)C[C@@H]1CCNC1=O)c1ccc2c(c1)CCC2 (stereo partly drawn) [Compound C132, 2-(3-Chlorophenyl)-1-(2,3-dihydro-1H-inden-5-yl)-2-methylpropyl ((S)-3-cyclohexyl-1-oxo-1-(((S)-1-oxo-3-((S)-2-oxopyrrolidin-3-yl)propan-2-yl)amino)propan-2-yl)carbamate] | 0.06 µM
5 | CCCCCCCOC(=O)N[C@@H](CC1CCCCC1)C(=O)N[C@H](C=O)CCC(=O)N1CCOc2ccccc2C1 [Compound C24, Heptyl ((S)-3-cyclohexyl-1-(((S)-5-(2,3-dihydrobenzo[f][1,4]oxazepin-4(5H)-yl)-1,5-dioxopentan-2-yl)amino)-1-oxopropan-2-yl)carbamate] | > 200 µM
6 | CC(C)C[C@H](NC(=O)OC(c1ccccc1)C(C)(C)c1cccc(Cl)c1)C(=O)NC(CC1CC(C)(C)NC1=O)C(=O)C(N)=O (stereo partly drawn) [Compound C218, 2-(3-Chlorophenyl)-2-methyl-1-phenylpropyl ((2S)-1-((4-amino-1-(5,5-dimethyl-2-oxopyrrolidin-3-yl)-3,4-dioxobutan-2-yl)amino)-4-methyl-1-oxopentan-2-yl)carbamate] | 1.85 µM
7 | COc1cccc2[nH]c(C(=O)N[C@@H](CC(C)C)C(=O)NC(CC3CC4(CCCCC4)NC3=O)C(=O)C(=O)NC3CC3)cc12 (stereo partly drawn) [Compound C234, N-((2S)-1-((4-(cyclopropylamino)-3,4-dioxo-1-(2-oxo-1-azaspiro[4.5]decan-3-yl)butan-2-yl)amino)-4-methyl-1-oxopentan-2-yl)-4-methoxy-1H-indole-2-carboxamide] | 0.0008 µM
8 | COc1cccc2[nH]c(C(=O)N[C@@H](CC3CCCCC3)C(=O)NC(C=O)CC3CC4(CCCCC4)NC3=O)cc12 (stereo partly drawn) [Compound C193, N-((2S)-3-Cyclohexyl-1-oxo-1-((1-oxo-3-(2-oxo-1-azaspiro[4.5]decan-3-yl)propan-2-yl)amino)propan-2-yl)-4-methoxy-1H-indole-2-carboxamide] | 0.0007 µM
9 | CC(C)C[C@H](NC(=O)OC(c1cccc(Cl)c1)C(F)(F)c1cccc(Cl)c1)C(=O)N[C@H](C=O)C[C@@H]1CCNC1=O (some centres unmarked) [Compound C266] | 0.02 µM
10 | CC(C)(C)C(=O)N1CCC2(CC1)CC(CC(C=O)NC(=O)[C@H](CC1CCCCC1)NC(=O)OC1CCCC1Cc1cccc(Cl)c1)C(=O)N2 (stereo partly drawn) [Compound C202, 2-(3-Chlorobenzyl) cyclopentyl ((2S)-3-cyclohexyl-1-oxo-1-((1-oxo-3-(2-oxo-8-pivaloyl-1,8-diazaspiro[4.5]decan-3-yl)propan-2-yl)amino)propan-2-yl)carbamate] | 0.644 µM
11 | CC(C)C[C@H](NC(=O)OC1CCCC1Cc1ccccc1)C(=O)N[C@H](C=O)C[C@@H]1CCNC1=O (stereo partly drawn) [Compound C43, 2-benzylcyclopentyl ((S)-4-methyl-1-oxo-1-(((S)-1-oxo-3-((S)-2-oxopyrrolidin-3-yl)propan-2-yl)amino)pentan-2-yl) carbamate] | 0.056 µM
12 | O=C[C@H](C[C@@H]1CCNC1=O)NC(=O)[C@H](CC1CCCCC1)NC(=O)OC(c1cccc(Cl)c1)C1(c2cccc(Cl)c2)CC1 (stereo partly drawn) [Compound C250, (3-Chlorophenyl)(1-(3-chlorophenyl)cyclopropyl)methyl ((S)-3-cyclohexyl-1-oxo-1-(((S)-1-oxo-3-((S)-2-oxopyrrolidin-3-yl)propan-2-yl)amino)propan-2-yl)carbamate] | 0.01 µM
13 | CC(=O)N1CCC2(CC1)CC(CC(C=O)NC(=O)[C@H](Cc1cccc(F)c1)NC(=O)OCc1cccc(Cl)c1)C(=O)N2 (stereo partly drawn) [Compound C67, 3-Chlorobenzyl ((2S)-1-((1-(8-acetyl-2-oxo-1,8-diazaspiro[4.5]decan-3-yl)-3-oxopropan-2-yl)amino)-3-(3-fluorophenyl)-1-oxopropan-2-yl)carbamate] | 0.3 µM
14 | CN(C(=O)CC[C@@H](C=O)NC(=O)[C@H](CC1CCCCC1)NC(=O)OCc1cccc(Cl)c1)C1(Cc2ccccc2)CC1 [Compound C17, 3-Chlorobenzyl ((S)-1-(((S)-5-((1-benzylcyclopropyl)(methyl)amino)-1,5-dioxopentan-2-yl)amino)-3-cyclohexyl-1-oxopropan-2-yl)carbamate] | 2.7 µM
15 | CCOP(=O)(OCC)C(O)C(CC1CC2(CCN(C(C)=O)CC2)NC1=O)NC(=O)[C@H](CC(C)C)NC(=O)OCC(C)(C)c1cccc(Cl)c1 (stereo partly drawn) [Compound C84, 2-(3-Chlorophenyl)-2-methylpropyl ((2S)-1-((3-(8-acetyl-2-oxo-1,8-diazaspiro[4.5]decan-3-yl)-1-(diethoxyphosphoryl)-1-hydroxypropan-2-yl)amino)-4-methyl-1-oxopentan-2-yl)carbamate] | 9.2 µM
16 | COc1cccc(CC2(OC(=O)N[C@@H](CC(C)C)C(=O)N[C@@H](C[C@@H]3CCNC3=O)C(O)S(=O)(=O)O)CC2)c1 (stereo partly drawn) [Compound C49, (2S)-1-Hydroxy-2-((S)-2-(((1-(3-methoxybenzyl)cyclopropoxy)carbonyl)amino)-4-methylpentanamido)-3-((S)-2-oxopyrrolidin-3-yl)propane-1-sulfonate] | 0.266 µM
17 | CC1(C)CC(CC(NC(=O)[C@H](CC2CCCCC2)NC(=O)OC(Cc2cccc(Cl)c2)c2ccccc2)C(=O)C(=O)NC2CC2)C(=O)N1 (stereo partly drawn) [Compound C155, 2-(3-Chlorophenyl)-1-phenylethyl ((2S)-3-cyclohexyl-1-((4-(cyclopropylamino)-1-(5,5-dimethyl-2-oxopyrrolidin-3-yl)-3,4-dioxobutan-2-yl)amino)-1-oxopropan-2-yl) carbamate] | 1.56 µM
18 | CC(C)C[C@H](NC(=O)OC(C)(C)Cc1ccccc1)C(=O)N[C@H](C=O)C[C@@H]1CCNC1=O [Compound C46, 2-Methyl-1-phenylpropan-2-yl ((S)-4-methyl-1-oxo-1-(((S)-1-oxo-3-((S)-2-oxopyrrolidin-3-yl)propan-2-yl)amino)pentan-2-yl) carbamate] | 1.38 µM
19 | CC(C)C[C@H](NC(=O)OC(Cc1cccc(Cl)c1)c1cccc(Cl)c1)C(=O)N[C@@H](C[C@@H]1CCNC1=O)C(=O)C(=O)NC1CC1 (stereo partly drawn) [Compound C242, 1,2-Bis(3-chlorophenyl)ethyl ((S)-1-(((S)-4-(cyclopropylamino)-3,4-dioxo-1-((S)-2-oxopyrrolidin-3-yl)butan-2-yl)amino)-4-methyl-1-oxopentan-2-yl)carbamate] | 0.074 µM
20 | CC(C)C[C@H](NC(=O)OC(Cc1cccc(Cl)c1)c1ccccc1)C(=O)N[C@@H](C[C@@H]1CCNC1=O)C(=O)C(=O)N1CCCCC1 (stereo partly drawn) [Compound C243, 2-(3-Chlorophenyl)-1-phenylethyl ((S)-1-(((S)-3,4-dioxo-1-((S)-2-oxopyrrolidin-3-yl)-4-(piperidin-1-yl)butan-2-yl)amino)-4-methyl-1-oxopentan-2-yl) carbamate] | > 20 µM
21 | CC(C)(c1cccc(Cl)c1)C(OC(=O)N[C@@H](CC1CCCCC1)C(=O)N[C@@H](C[C@@H]1CCNC1=O)C(=O)C(N)=O)c1ccc(Cl)cc1 (stereo partly drawn) [Compound C134, 2-(3-Chlorophenyl)-1-(4-chlorophenyl)-2-methylpropyl ((S)-1-(((S)-4-amino-3,4-dioxo-1-((S)-2-oxopyrrolidin-3-yl)butan-2-yl)amino)-3-cyclohexyl-1-oxopropan-2-yl)carbamate] | 0.767 µM
22 | CC(C)C[C@H](NC(=O)OC(c1ccc(Cl)cc1)C(C)(C)c1cccc(Cl)c1)C(=O)N[C@@H](C[C@@H]1CCNC1=O)C(=O)C(=O)NC1CC1 (stereo partly drawn) [Compound C226, 2-(3-chlorophenyl)-1-(4-chlorophenyl)-2-methylpropyl ((S)-1-(((S)-4-(cyclopropylamino)-3,4-dioxo-1-((S)-2-oxopyrrolidin-3-yl)butan-2-yl)amino)-4-methyl-1-oxopentan-2-yl)carbamate] | 0.057 µM
23 | CC1(C)CC(C[C@@H](C=O)NC(=O)[C@H](CC2CCCCC2)NC(=O)OC2CCCC2Cc2cccc(Cl)c2)C(=O)N1 (stereo partly drawn) [Compound C156, 2-(3-Chlorobenzyl)cyclopentyl ((2S)-3-cyclohexyl-1-((1-(5,5-dimethyl-2-oxopyrrolidin-3-yl)-3-oxopropan-2-yl)amino)-1-oxopropan-2-yl)carbamate] | 0.0528 µM
24 | CCCCCOC(=O)N[C@@H](CC(C)C)C(=O)NC(C)(C=O)CC1CCNC1=O (stereo partly drawn) [Compound C65, Pentyl ((2S)-4-methyl-1-((2-methyl-1-oxo-3-(2-oxopyrrolidin-3-yl)propan-2-yl)amino)-1-oxopentan-2-yl) carbamate] | 26.9 µM
25 | CC(C)(c1cccc(Cl)c1)C(OC(=O)N[C@@H](CC1CCCCC1)C(=O)N[C@H](C=O)C[C@@H]1CCNC1=O)c1cccc(Cl)c1 (stereo partly drawn) [Compound C106, 1,2-Bis(3-chlorophenyl)-2-methylpropyl ((S)-3-cyclohexyl-1-oxo-1-(((S)-1-oxo-3-((S)-2-oxopyrrolidin-3-yl)propan-2-yl)amino)propan-2-yl)carbamate] | 0.0001 µM
26 | COc1cccc2[nH]c(C(=O)N[C@@H](CC(C)C)C(=O)NC(CC3CC4(CCCCC4)NC3=O)C(=O)CCl)cc12 (stereo partly drawn) [Compound C227, N-((2S)-1-((4-chloro-3-oxo-1-(2-oxo-1-azaspiro[4.5]decan-3-yl)butan-2-yl)amino)-4-methyl-1-oxopentan-2-yl)-4-methoxy-1H-indole-2-carboxamide] | 0.059 µM
